Results on six molecules are retold here after ChEMBL document CHEMBL1629671, “Activity of posaconazole and other antifungal agents against Mucorales strains identified by sequencing of internal transcribed spacers” (2009).

Values after ≈ are worked out from the molar mass of the structure shown.

Assay type in all cases: functional
Experiment [1] can be described thus: Antifungal activity against Rhizopus microsporus after 48 hrs by microdilution method. Background: In broth dilution the organism is exposed to a series of concentrations in liquid medium.
The subject of experiment [2] is Lichtheimia corymbifera. The experiment can be described thus: Antifungal activity against Mycocladus corymbifer after 24 hrs by microdilution method.
The subject of experiment [3] is Cunninghamella bertholletiae. The experiment can be described thus: Antifungal activity against Cunninghamella bertholletiae after 24 hrs by microdilution method.
Experiment [4] concerns Cunninghamella. The experiment can be described thus: Antifungal activity against Cunninghamella spp. after 48 hrs by microdilution method.
Experiment [5] in a line: Antifungal activity against Rhizomucor pusillus after 48 hrs by microdilution method.
The test system of experiment [6] is Apophysomyces. The experiment can be described thus: Antifungal activity against Apophysomyces spp. after 24 hrs by microdilution method.
Experiment [7] concerns Rhizopus arrhizus. The experiment can be described thus: Antifungal activity against Rhizopus oryzae after 24 hrs by microdilution method.
For experiment [8], the system named is Mucor circinelloides. The experiment can be described thus: Antifungal activity against Mucor circinelloides after 48 hrs by microdilution method.
The subject of experiment [9] is Mucor circinelloides. The experiment can be described thus: Antifungal activity against Mucor circinelloides after 24 hrs by microdilution method.
Experiment [10] is described as follows: Antifungal activity against Rhizomucor pusillus after 24 hrs by microdilution method.
Experiment [11] deals with Actinomucor. The experiment can be described thus: Antifungal activity against Actinomucor spp. after 24 hrs by microdilution method.
A short description of experiment [12]: Antifungal activity against Rhizomucor variabilis after 24 hrs by microdilution method.
The test system of experiment [13] is Cunninghamella bertholletiae. The experiment can be described thus: Antifungal activity against Cunninghamella bertholletiae after 48 hrs by microdilution method.
Experiment [14] deals with Apophysomyces. The experiment can be described thus: Antifungal activity against Apophysomyces spp. after 48 hrs by microdilution method.
Experiment [15] has as its system Actinomucor. The experiment can be described thus: Antifungal activity against Actinomucor spp. after 48 hrs by microdilution method.
Experiment [16] is described as follows: Antifungal activity against Rhizopus microsporus after 24 hrs by microdilution method.
Experiment [17] deals with Lichtheimia corymbifera. The experiment can be described thus: Antifungal activity against Mycocladus corymbifer after 48 hrs by microdilution method.
For experiment [18], the system named is Cunninghamella. The experiment can be described thus: Antifungal activity against Cunninghamella spp. after 24 hrs by microdilution method.
Experiment [19] is described as follows: Antifungal activity against Rhizomucor variabilis after 48 hrs by microdilution method.
In experiment [20] the test system is Rhizopus arrhizus. The experiment can be described thus: Antifungal activity against Rhizopus oryzae after 48 hrs by microdilution method.

With `C[C@@H](c1ncncc1F)[C@](O)(Cn1cncn1)c1ccc(F)cc1F` [VORICONAZOLE], the MIC (in general, the smallest concentration in the dilution series that meets the test's criterion for growth inhibition) in experiment [1] worked out at 8.98 µg/mL (≈ 25.7 µM); in the experiment with Lichtheimia corymbifera [2], 14.5 µg/mL (≈ 41.5 µM); in experiment [3] it was 16 µg/mL (≈ 45.8 µM); in the experiment on Cunninghamella [4], 16 µg/mL (≈ 45.8 µM); in experiment [5], 6.06 µg/mL (≈ 17.3 µM); in the experiment with Apophysomyces [6] it was 16 µg/mL (≈ 45.8 µM). Moreover, the MIC in the experiment on Rhizopus arrhizus [7] was 12.1 µg/mL (≈ 34.7 µM); in the experiment on Mucor circinelloides [8], 16 µg/mL (≈ 45.8 µM); with Mucor circinelloides [9], 16 µg/mL (≈ 45.8 µM); in [10], 5.28 µg/mL (≈ 15.1 µM); against Actinomucor [11], 16 µg/mL (≈ 45.8 µM); in experiment [12] it was 16 µg/mL (≈ 45.8 µM). The minimum inhibitory concentration (MIC) in [13] came out at 16 µg/mL (≈ 45.8 µM); against Apophysomyces [14], 16 µg/mL (≈ 45.8 µM); with Actinomucor [15], 22.6 µg/mL (≈ 64.8 µM); in experiment [16], 8 µg/mL (≈ 22.9 µM); against Lichtheimia corymbifera [17], 16 µg/mL (≈ 45.8 µM); against Cunninghamella [18] it was 16 µg/mL (≈ 45.8 µM). Besides, the MIC (in [19]; against Rhizopus arrhizus [20]) was 16 µg/mL (≈ 45.8 µM) in each case.

For `C[C@@H]1[C@H](O)[C@@H](C)/C=C/C=C/C=C/C=C/C=C/C=C/C=C/[C@H](O[C@@H]2O[C@H](C)[C@@H](O)[C@H](N)[C@@H]2O)C[C@@H]2O[C@](O)(C[C@@H](O)C[C@@H](O)[C@H](O)CC[C@@H](O)C[C@@H](O)CC(=O)O[C@H]1C)C[C@H](O)[C@H]2C(=O)O` [AMPHOTERICIN B], the MIC in experiment [1] stood at 0.89 µg/mL (≈ 0.963 µM); against Lichtheimia corymbifera [2] it was 0.08 µg/mL (≈ 0.0866 µM); in experiment [3], 7.13 µg/mL (≈ 7.72 µM); against Cunninghamella [4], 4 µg/mL (≈ 4.33 µM); in [5], 0.1 µg/mL (≈ 0.108 µM); against Apophysomyces [6] it was 2 µg/mL (≈ 2.16 µM). For the same molecule, the MIC was 0.29 µg/mL (≈ 0.314 µM) in the experiment with Rhizopus arrhizus [7]; 0.15 µg/mL (≈ 0.162 µM) in the experiment on Mucor circinelloides [8]; 0.05 µg/mL (≈ 0.0541 µM) in the experiment with Mucor circinelloides [9]; 0.05 µg/mL (≈ 0.0541 µM) in [10]; 1 µg/mL (≈ 1.08 µM) against Actinomucor [11]; 0.03 µg/mL (≈ 0.0325 µM) in experiment [12]. Besides, the MIC in experiment [13] was 7.13 µg/mL (≈ 7.72 µM); in the experiment with Apophysomyces [14] it was 8 µg/mL (≈ 8.66 µM); against Actinomucor [15] it was 1.41 µg/mL (≈ 1.53 µM); in [16] it was 0.45 µg/mL (≈ 0.487 µM); in the experiment with Lichtheimia corymbifera [17], 0.14 µg/mL (≈ 0.152 µM); against Cunninghamella [18], 2.83 µg/mL (≈ 3.06 µM). In addition, the figures for the MIC (in [19]; with Rhizopus arrhizus [20]) were 0.09 µg/mL (≈ 0.0974 µM) and 1 µg/mL (≈ 1.08 µM), respectively.

In the case of `CC[C@@H]([C@H](C)O)n1ncn(-c2ccc(N3CCN(c4ccc(OC[C@@H]5CO[C@@](Cn6cncn6)(c6ccc(F)cc6F)C5)cc4)CC3)cc2)c1=O` [POSACONAZOLE], the minimal inhibitory concentration (MIC) in experiment [1] was found to be 3.17 µg/mL (≈ 4.52 µM); in the experiment with Lichtheimia corymbifera [2], 0.41 µg/mL (≈ 0.585 µM); in [3] it was 2.3 µg/mL (≈ 3.28 µM); in the experiment on Cunninghamella [4] it was 4 µg/mL (≈ 5.71 µM); in [5] it was 0.28 µg/mL (≈ 0.4 µM); in the experiment on Apophysomyces [6], 0.5 µg/mL (≈ 0.713 µM). For the same molecule, the minimum inhibitory concentration (MIC) with Rhizopus arrhizus [7] came to 1.15 µg/mL (≈ 1.64 µM); with Mucor circinelloides [8] it was 2.69 µg/mL (≈ 3.84 µM); against Mucor circinelloides [9], 1.49 µg/mL (≈ 2.13 µM); in experiment [10], 0.16 µg/mL (≈ 0.228 µM); with Actinomucor [11], 0.06 µg/mL (≈ 0.0856 µM); in [12], 1.41 µg/mL (≈ 2.01 µM). Moreover, the MIC in experiment [13] stood at 4.59 µg/mL (≈ 6.55 µM); in the experiment on Apophysomyces [14], 1 µg/mL (≈ 1.43 µM); in the experiment with Actinomucor [15], 0.125 µg/mL (≈ 0.178 µM); in experiment [16] it was 0.79 µg/mL (≈ 1.13 µM); with Lichtheimia corymbifera [17], 0.67 µg/mL (≈ 0.956 µM); in the experiment with Cunninghamella [18] it was 0.25 µg/mL (≈ 0.357 µM). Moreover, the MIC turned out to be 16 µg/mL (≈ 22.8 µM) in experiment [19] and 2 µg/mL (≈ 2.85 µM) against Rhizopus arrhizus [20].

Turning to `CCC(C)n1ncn(-c2ccc(N3CCN(c4ccc(OCC5COC(Cn6cncn6)(c6ccc(Cl)cc6Cl)O5)cc4)CC3)cc2)c1=O` (stereo not given) [ITRACONAZOLE], the minimum inhibitory concentration (MIC) in experiment [1] amounted to 3.56 µg/mL (≈ 5.05 µM); in the experiment on Lichtheimia corymbifera [2], 0.68 µg/mL (≈ 0.964 µM); in [3], 3.17 µg/mL (≈ 4.49 µM); with Cunninghamella [4], 4 µg/mL (≈ 5.67 µM); in experiment [5], 0.44 µg/mL (≈ 0.624 µM); in the experiment with Apophysomyces [6] it was 16 µg/mL (≈ 22.7 µM). The MIC against Rhizopus arrhizus [7] is 4 µg/mL (≈ 5.67 µM); in the experiment on Mucor circinelloides [8] it was 16 µg/mL (≈ 22.7 µM); against Mucor circinelloides [9], 11.9 µg/mL (≈ 16.8 µM); in [10], 0.29 µg/mL (≈ 0.411 µM); in the experiment with Actinomucor [11], 2 µg/mL (≈ 2.83 µM); in experiment [12], 16 µg/mL (≈ 22.7 µM). Also, the minimum inhibitory concentration (MIC) in [13] was 10.1 µg/mL (≈ 14.3 µM); with Apophysomyces [14] it was 16 µg/mL (≈ 22.7 µM); against Actinomucor [15] it was 2 µg/mL (≈ 2.83 µM); in [16] it was 1.59 µg/mL (≈ 2.25 µM); in the experiment on Lichtheimia corymbifera [17], 1.35 µg/mL (≈ 1.91 µM); against Cunninghamella [18] it was 0.5 µg/mL (≈ 0.709 µM). Besides, the minimal inhibitory concentration (MIC) in [19] was determined as 16 µg/mL (≈ 22.7 µM); in the experiment with Rhizopus arrhizus [20], 6.96 µg/mL (≈ 9.86 µM).

In the case of `C[C@@H](c1nc(-c2ccc(C#N)cc2)cs1)[C@](O)(Cn1cncn1)c1ccc(F)cc1F` [RAVUCONAZOLE], the MIC in experiment [1] turned out to be 1.78 µg/mL (≈ 4.07 µM); in the experiment on Lichtheimia corymbifera [2] it was 1.22 µg/mL (≈ 2.79 µM); in [3], 8 µg/mL (≈ 18.3 µM); with Cunninghamella [4] it was 8 µg/mL (≈ 18.3 µM); in [5], 0.87 µg/mL (≈ 1.99 µM); against Apophysomyces [6] it was 2 µg/mL (≈ 4.57 µM). In addition, the MIC against Rhizopus arrhizus [7] is 1 µg/mL (≈ 2.29 µM); in the experiment on Mucor circinelloides [8], 13.1 µg/mL (≈ 30 µM); against Mucor circinelloides [9] it was 11.9 µg/mL (≈ 27.2 µM); in [10], 0.66 µg/mL (≈ 1.51 µM); in the experiment on Actinomucor [11], 0.25 µg/mL (≈ 0.571 µM); in experiment [12], 8 µg/mL (≈ 18.3 µM). Further, the minimal inhibitory concentration (MIC) worked out at 12.1 µg/mL (≈ 27.7 µM) in experiment [13]; 4 µg/mL (≈ 9.14 µM) in the experiment with Apophysomyces [14]; 0.5 µg/mL (≈ 1.14 µM) against Actinomucor [15]; 0.89 µg/mL (≈ 2.03 µM) in experiment [16]; 2 µg/mL (≈ 4.57 µM) with Lichtheimia corymbifera [17]; 1 µg/mL (≈ 2.29 µM) against Cunninghamella [18]. The minimal inhibitory concentration (MIC) was 16 µg/mL (≈ 36.6 µM) in experiment [19] and 1.32 µg/mL (≈ 3.02 µM) in the experiment on Rhizopus arrhizus [20].

For `CN(C/C=C/C#CC(C)(C)C)Cc1cccc2ccccc12` [TERBINAFINE], the MIC in experiment [1] came out at 1.41 µg/mL (≈ 4.84 µM); in the experiment with Lichtheimia corymbifera [2] it was 0.5 µg/mL (≈ 1.72 µM); in [3], 0.4 µg/mL (≈ 1.37 µM); in the experiment on Cunninghamella [4], 0.18 µg/mL (≈ 0.618 µM); in experiment [5] it was 0.33 µg/mL (≈ 1.13 µM); with Apophysomyces [6] it was 2 µg/mL (≈ 6.86 µM). The minimal inhibitory concentration (MIC) in the experiment with Rhizopus arrhizus [7] was determined as 24.2 µg/mL (≈ 83.2 µM); against Mucor circinelloides [8] it was 32 µg/mL (≈ 110 µM); in the experiment with Mucor circinelloides [9], 21.5 µg/mL (≈ 73.9 µM); in experiment [10], 0.22 µg/mL (≈ 0.755 µM); in the experiment on Actinomucor [11], 0.125 µg/mL (≈ 0.429 µM); in [12] it was 32 µg/mL (≈ 110 µM). Further, the minimal inhibitory concentration (MIC) in [13] was 0.49 µg/mL (≈ 1.68 µM); with Apophysomyces [14] it was 2 µg/mL (≈ 6.86 µM); in the experiment with Actinomucor [15] it was 0.36 µg/mL (≈ 1.24 µM); in experiment [16] it was 0.71 µg/mL (≈ 2.44 µM); against Lichtheimia corymbifera [17] it was 1 µg/mL (≈ 3.43 µM); against Cunninghamella [18] it was 0.13 µg/mL (≈ 0.446 µM). Besides, the MIC (in experiment [19]; against Rhizopus arrhizus [20]) was 32 µg/mL (≈ 110 µM) each time.
